The source of these data is US8802700B2 (Vertex Pharmaceuticals Incorporated, priority 2010, dated 2014).

This test addresses T1, ΔF508-CFTR (Homo sapiens, UniProt P13569, DEL508-508).
T1 construct: expressed in transfected cells
Briefly: Membrane potential optical assay (FRET voltage-sensor dyes, VIPR), identification of potentiator compounds. It is filed as cell-based. The note with it: Table 3, assay not given; for Emax: read-out: % Activity (% Efficacy, relative efficacy). In a few lines:
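NIH3T3 mouse fibroblasts stably expressing ΔF508-CFTR, cultured 24 h at 27 °C, were loaded with FRET voltage dyes CC2-DMPE and DiSBAC2(3). Double-addition format: first addition of Cl⁻-free (gluconate) medium with or without compound; membrane-potential change read as fluorescence on VIPR II.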

T1 sequence (P13569 with tags, fused parts or gaps DEL508-508): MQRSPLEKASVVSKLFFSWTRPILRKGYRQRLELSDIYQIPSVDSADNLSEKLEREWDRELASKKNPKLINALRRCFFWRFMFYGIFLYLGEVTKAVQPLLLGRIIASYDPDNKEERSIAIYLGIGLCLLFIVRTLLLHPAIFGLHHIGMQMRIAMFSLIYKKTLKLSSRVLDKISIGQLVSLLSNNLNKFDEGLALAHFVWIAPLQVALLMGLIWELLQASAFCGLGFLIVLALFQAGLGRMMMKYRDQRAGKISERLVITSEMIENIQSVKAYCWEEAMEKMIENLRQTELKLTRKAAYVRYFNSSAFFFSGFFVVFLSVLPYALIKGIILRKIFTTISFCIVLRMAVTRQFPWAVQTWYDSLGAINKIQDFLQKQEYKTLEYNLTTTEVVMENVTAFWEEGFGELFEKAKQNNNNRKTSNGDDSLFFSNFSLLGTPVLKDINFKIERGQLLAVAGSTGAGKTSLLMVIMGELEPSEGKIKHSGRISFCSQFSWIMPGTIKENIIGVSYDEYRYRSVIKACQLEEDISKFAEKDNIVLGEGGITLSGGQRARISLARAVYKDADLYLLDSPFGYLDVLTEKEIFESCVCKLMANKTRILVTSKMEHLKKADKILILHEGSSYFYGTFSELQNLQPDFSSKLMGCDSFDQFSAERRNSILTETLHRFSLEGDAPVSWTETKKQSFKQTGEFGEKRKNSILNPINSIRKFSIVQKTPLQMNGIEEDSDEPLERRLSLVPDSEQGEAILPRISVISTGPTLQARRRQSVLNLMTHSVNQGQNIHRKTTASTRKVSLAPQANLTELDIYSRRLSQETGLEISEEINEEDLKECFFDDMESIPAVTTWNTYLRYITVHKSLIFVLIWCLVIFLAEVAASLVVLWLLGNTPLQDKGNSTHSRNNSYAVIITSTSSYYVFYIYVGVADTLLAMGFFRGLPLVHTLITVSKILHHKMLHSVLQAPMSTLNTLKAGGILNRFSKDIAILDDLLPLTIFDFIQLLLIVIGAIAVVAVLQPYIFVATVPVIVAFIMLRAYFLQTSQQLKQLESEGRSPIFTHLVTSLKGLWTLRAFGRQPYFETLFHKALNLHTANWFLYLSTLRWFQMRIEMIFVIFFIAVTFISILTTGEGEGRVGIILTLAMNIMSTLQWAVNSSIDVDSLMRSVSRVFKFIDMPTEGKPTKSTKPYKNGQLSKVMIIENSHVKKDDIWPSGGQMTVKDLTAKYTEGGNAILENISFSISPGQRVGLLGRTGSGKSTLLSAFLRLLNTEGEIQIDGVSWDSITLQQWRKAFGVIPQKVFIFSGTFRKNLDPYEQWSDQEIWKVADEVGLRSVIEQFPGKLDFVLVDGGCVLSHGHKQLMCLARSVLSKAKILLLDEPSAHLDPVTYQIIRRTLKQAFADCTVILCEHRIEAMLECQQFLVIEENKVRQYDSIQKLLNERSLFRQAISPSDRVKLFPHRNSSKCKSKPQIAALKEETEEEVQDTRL

In the case of `Cc1ccc(-c2ccccc2NC(=O)c2c[nH]c3ccccc3c2=O)o1` [Compound 311, N-[2-(5-methyl-2-furyl)phenyl]-4-oxo-1H-quinoline-3-carboxamide], the Emax is 25 to 100%. On the same count and under the same terms, under `COc1ccc(-c2ccccc2NC(=O)c2c[nH]c3ccccc3c2=O)c(OC)c1` [Compound 312, N-[2-(2,4-dimethoxyphenyl)phenyl]-4-oxo-1H-quinoline-3-carboxamide] stands 25 to 100%; under `O=C(Nc1ccccc1-c1ccccc1F)c1c[nH]c2ccccc2c1=O` [Compound 313, N-[2-(2-fluorophenyl)phenyl]-4-oxo-1H-quinoline-3-carboxamide], 25 to 100%. For `CCc1cccc(C(C)C)c1NC(=O)c1c[nH]c2ccccc2c1=O` [Compound 314, N-(2-ethyl-6-isopropyl-phenyl)-4-oxo-1H-quinoline-3-carboxamide], the EC50 is under 10 µM and the Emax lay in the range of 25 to 100%. Regarding `Cc1cccc(C)c1NC(=O)c1c[nH]c2ccccc2c1=O` [Compound 315, N-(2,6-dimethylphenyl)-4-oxo-1H-quinoline-3-carboxamide], the Emax lay in the range of 25 to 100%.

`CC(=O)Nc1ccc(C(C)(C)C)c(NC(=O)c2c[nH]c3ccccc3c2=O)c1` [Compound 316, N-(5-acetylamino-2-tert-butyl-phenyl)-4-oxo-1H-quinoline-3-carboxamide]: the Emax lay within 25 to 100%. `O=C(Nc1c(Cl)cccc1Cl)c1c[nH]c2ccccc2c1=O` [Compound 317, N-(2,6-dichlorophenyl)-4-oxo-1H-quinoline-3-carboxamide]: the Emax was 25 to 100%. Same read-out and setting: to `O=C(Nc1cc(NS(=O)(=O)CCN2CCCCC2)cc(C(F)(F)F)c1)c1c[nH]c2ccccc2c1=O` [Compound 318, 4-Oxo-N-[3-[2-(1-piperidyl)ethylsulfonylamino]-5-(trifluoromethyl)phenyl]-1H-quinoline-3-carboxamide] belongs 25 to 100%. Still for that read-out and setting: under `CC(C)(C)c1cc(F)c(NC(=O)c2c[nH]c3ccc(F)cc3c2=O)cc1O` [Compound 319, 6-fluoro-N-(2-fluoro-5-hydroxy-4-tert-butyl-phenyl)-4-oxo-1H-quinoline-3-carboxamide] stands 25 to 100%; under `CC(C)(C)c1cc2ccc(NC(=O)c3c[nH]c4ccccc4c3=O)cc2[nH]1` [Compound 320, 4-oxo-N-(2-tert-butyl-1H-indol-6-yl)-1H-quinoline-3-carboxamide], 25 to 100%. In the case of `O=C(Nc1ccccc1N1CCN(C(=O)c2ccccc2)CC1)c1c[nH]c2ccccc2c1=O` [Compound 321, N-[2-(4-benzoylpiperazin-1-yl)phenyl]-4-oxo-1H-quinoline-3-carboxamide], the Emax fell in the range of 25 to 100%. The same measure, in the same setting: to `CCc1cccc(C(C)CC)c1NC(=O)c1c[nH]c2ccccc2c1=O` (centres unmarked) [Compound 322, N-(2-ethyl-6-sec-butyl-phenyl)-4-oxo-1H-quinoline-3-carboxamide] belongs 25 to 100%; to `COC(=O)NCC(C)(C)c1ccc(NC(=O)c2c[nH]c3ccccc3c2=O)cc1` [Compound 323, [2-Methyl-2-[4-[(4-oxo-1H-quinolin-3-yl)carbonylamino]phenyl]-propyl]aminoformic acid methyl ester], 25 to 100%; to `CCCCc1ccc(NC(=O)c2c[nH]c3ccccc3c2=O)cc1` [Compound 324, N-(4-butylphenyl)-4-oxo-1H-quinoline-3-carboxamide], 25 to 100%.

With `CCc1cccc(CC)c1NC(=O)c1c[nH]c2ccccc2c1=O` [Compound 325, N-(2,6-diethylphenyl)-4-oxo-1H-quinoline-3-carboxamide], the Emax fell in the range of 25 to 100%.

In the case of `CS(=O)(=O)c1ccc(-c2ccccc2NC(=O)c2c[nH]c3ccccc3c2=O)cc1` [Compound 326, N-[2-(4-methylsulfonylphenyl)phenyl]-4-oxo-1H-quinoline-3-carboxamide], the Emax lay in the range of 25 to 100%. On the same count and under the same terms, under `CCOc1ccccc1-c1cc2cc[nH]c2cc1NC(=O)c1c[nH]c2ccccc2c1=O` [Compound 327, N-[5-(2-ethoxyphenyl)-1H-indol-6-yl]-4-oxo-1H-quinoline-3-carboxamide] stands 25 to 100%. Same read-out and setting: under `CC(=O)c1cccc(NC(=O)c2c[nH]c3ccccc3c2=O)c1` [Compound 328, N-(3-acetylphenyl)-4-oxo-1H-quinoline-3-carboxamide] stands under 25%; under `Cc1ccccc1-c1nc2cc(NC(=O)c3c[nH]c4ccccc4c3=O)ccc2o1` [Compound 329, N-[2-(o-tolyl)benzooxazol-5-yl]-4-oxo-1H-quinoline-3-carboxamide], 25 to 100%.

For `O=C(Nc1ccccc1Cl)c1c[nH]c2ccccc2c1=O` [Compound 330, N-(2-chlorophenyl)-4-oxo-1H-quinoline-3-carboxamide], the Emax is 25 to 100%.

With `NC(=O)c1ccccc1NC(=O)c1c[nH]c2ccccc2c1=O` [Compound 331, N-(2-carbamoylphenyl)-4-oxo-1H-quinoline-3-carboxamide], the Emax was under 25%. Turning to `C#Cc1ccc(NC(=O)c2c[nH]c3ccccc3c2=O)cc1` [Compound 332, N-(4-ethynylphenyl)-4-oxo-1H-quinoline-3-carboxamide], the Emax lay within 25 to 100%. In the case of `N#CCc1ccc(-c2ccccc2NC(=O)c2c[nH]c3ccccc3c2=O)cc1` [Compound 333, N-[2-[4-(cyanomethyl)phenyl]phenyl]-4-oxo-1H-quinoline-3-carboxamide], the EC50 is under 10 µM and the Emax fell in the range of 25 to 100%. Consider `CC(=O)N1CCC2(CCN(C(=O)OC(C)(C)C)CC2)c2ccc(NC(=O)c3c[nH]c4ccccc4c3=O)cc21` [Compound 334, 7′-[(4-oxo-1H-quinolin-3-ylcarbonyl)amino]-spiro[piperidine-4,4′(1′H)-1-acetyl-quinoline], 2′,3′-dihydro-carboxylic acid tert-butyl ester], for which the Emax fell in the range of 25 to 100%. The same measure, in the same setting: under `Cc1ccc(C(N)=O)c(NC(=O)c2c[nH]c3ccccc3c2=O)c1` [Compound 335, N-(2-carbamoyl-5-methyl-phenyl)-4-oxo-1H-quinoline-3-carboxamide] stands under 25%; under `CCCCc1ccccc1NC(=O)c1c[nH]c2ccccc2c1=O` [Compound 336, N-(2-butylphenyl)-4-oxo-1H-quinoline-3-carboxamide], 25 to 100%. On to `CN(C(=O)c1c[nH]c2ccccc2c1=O)c1cc(O)c(C(C)(C)C)cc1C(C)(C)C` [Compound 337, N-(5-hydroxy-2,4-ditert-butyl-phenyl)-N-methyl-4-oxo-1H-quinoline-3-carboxamide], for which the Emax lay within 25 to 100%. In the case of `Cc1c[nH]c2cccc(NC(=O)c3c[nH]c4ccccc4c3=O)c12` [Compound 338, N-(3-methyl-1H-indol-4-yl)-4-oxo-1H-quinoline-3-carboxamide], the Emax was 25 to 100%. On to `N#Cc1c[nH]c2cc(NC(=O)c3c[nH]c4ccccc4c3=O)ccc12` [Compound 339, N-(3-cyano-1H-indol-6-yl)-4-oxo-1H-quinoline-3-carboxamide], for which the Emax is 25 to 100%. Regarding `CCCc1ccc(NC(=O)c2c[nH]c3ccccc3c2=O)cc1NS(C)(=O)=O` [Compound 340, N-(3-methylsulfonylamino-4-propyl-phenyl)-4-oxo-1H-quinoline-3-carboxamide], the Emax was in the range of 25 to 100%. The same measure, in the same setting: to `CC(C)(C)COC(=O)NCC(C)(C)c1ccc(NC(=O)c2c[nH]c3ccccc3c2=O)cc1` [Compound 341, [2-methyl-2-[4-[(4-oxo-1H-quinolin-3-yl)carbonylamino]phenyl]-propyl]aminoformic acid neopentyl ester] belongs 25 to 100%; to `CC(C)c1ccc(-c2cc3cc[nH]c3cc2NC(=O)c2c[nH]c3ccccc3c2=O)cc1` [Compound 342, N-[5-(4-isopropylphenyl)-1H-indol-6-yl]-4-oxo-1H-quinoline-3-carboxamide], 25 to 100%; to `CC(C)CNC(=O)c1cc2cc[nH]c2cc1NC(=O)c1c[nH]c2ccccc2c1=O` [Compound 343, N-[5-(Isobutylcarbamoyl)-1H-indol-6-yl]-4-oxo-1H-quinoline-3-carboxamide], 25 to 100%. Regarding `CCOc1ccccc1-c1ccccc1NC(=O)c1c[nH]c2ccccc2c1=O` [Compound 344, N-[2-(2-ethoxyphenyl)phenyl]-4-oxo-1H-quinoline-3-carboxamide], the concentration giving a half-maximal response (EC50) is under 10 µM and the Emax was in the range of 25 to 100%. On to `O=C(Nc1ccc2cc[nH]c2c1)c1cnc2ccc(F)cc2c1O` [Compound 345, 6-fluoro-4-hydroxy-N-(1H-indol-6-yl)quinoline-3-carboxamide], for which the Emax lay within 25 to 100%. Same read-out and setting: to `O=C(Nc1ccccc1)c1c[nH]c2cc(C(F)(F)F)ccc2c1=O` [Compound 346, 4-oxo-N-phenyl-7-(trifluoromethyl)-1H-quinoline-3-carboxamide] belongs 25 to 100%; to `CN(C)CCNC(=O)c1ccc(-c2cc3cc[nH]c3cc2NC(=O)c2c[nH]c3ccccc3c2=O)cc1` [Compound 347, N-[5-[4-(2-dimethylaminoethylcarbamoyl)phenyl]-1H-indol-6-yl]-4-oxo-1H-quinoline-3-carboxamide], 25 to 100%; to `CCOc1ccc(-c2ccccc2NC(=O)c2c[nH]c3ccccc3c2=O)cc1` [Compound 348, N-[2-(4-ethoxyphenyl)phenyl]-4-oxo-1H-quinoline-3-carboxamide], 25 to 100%. Same read-out and setting: to `O=C(Nc1cccc2ccccc12)c1c[nH]c2ccccc2c1=O` [Compound 350, N-(1-naphthyl)-4-oxo-1H-quinoline-3-carboxamide] belongs 25 to 100%. On to `CCc1cc2cc[nH]c2cc1NC(=O)c1c[nH]c2ccccc2c1=O` [Compound 351, N-(5-ethyl-1H-indol-6-yl)-4-oxo-1H-quinoline-3-carboxamide], for which the Emax lay within 25 to 100%.

Regarding `CC(C)(C)OC(=O)NCCc1c[nH]c2cc(NC(=O)c3c[nH]c4ccccc4c3=O)ccc12` [Compound 352, 2-[6-[(4-oxo-1H-quinolin-3-yl)carbonylamino]-1H-indol-3-yl]ethylaminoformic acid tert-butyl ester], the Emax fell in the range of 25 to 100%.

In general, EC50 refers to the concentration that produces a half-maximal response.
